Measurements from ChEMBL document CHEMBL1201862, “PubChem BioAssay data set” (2004).
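48-hour exposure; five concentrations; linearly interpolated endpoints. GI50: concentration for 50% inhibition of growth.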 Calls of active or inactive are those of the source. Cut-off read from the data, not from the text of the source: active = GI50 up to about 1.1 µM and inactive = higher.

What was measured:
Test in all cases: DTP human tumour cell line panel, 48 h
OVCAR-8 = system: OVCAR-8
CAKI-1 = system: CAKI-1
A498 = system: A498
OVCAR-4 = system: OVCAR-4
KM12 = system: KM12
SK-OV-3 = system: SK-OV-3
UACC-62 = system: UACC-62
SNB-19 = system: SNB-19
Malme-3M = system: Malme-3M
NCI/ADR-RES = system: NCI/ADR-RES
A549 = system: A549
SK-MEL-5 = system: SK-MEL-5
MOLT-4 = system: MOLT-4
SK-MEL-28 = system: SK-MEL-28
UACC-257 = system: UACC-257
NCI-H522 = system: NCI-H522
SF-295 = system: SF-295
LOX IMVI = system: LOX IMVI
HCC 2998 = system: HCC 2998

With N=C(N)N/N=C/c1nc2n(c1[N+](=O)[O-])CCS2 the GI50 (OVCAR-8) was 15.7 µM (inactive), the GI50 (CAKI-1) was > 100 µM (inactive) and the GI50 (A498) was 43.3 µM (inactive). The GI50 (OVCAR-4) was 16.2 µM (inactive), the GI50 (KM12) was 25 µM (inactive) and the GI50 (SK-OV-3) was 45.3 µM (inactive). The GI50 (UACC-62) was 42.8 µM (inactive), the GI50 (SNB-19) was 27.5 µM (inactive) and the GI50 (Malme-3M) was 15.6 µM (inactive). For the same molecule, the GI50 (NCI/ADR-RES) was > 100 µM (inactive), the GI50 (A549) was 26.8 µM (inactive) and the GI50 (SK-MEL-5) was 18.5 µM (inactive). The GI50 (MOLT-4) was 22.2 µM (inactive), the GI50 (SK-MEL-28) was 43.7 µM (inactive) and the GI50 (UACC-257) was 17.1 µM (inactive). The GI50 (NCI-H522) was 12.9 µM (inactive), the GI50 (SF-295) was 26.4 µM (inactive) and the GI50 (LOX IMVI) was 15.7 µM (inactive).
In the case of CCOC(=O)C1C(c2ccc(OC)cc2)c2c(nn(-c3ccccc3)c2O)CC1(C)O (stereo not given), the GI50 (OVCAR-8) is reported as 98.2 µM (inactive), the GI50 (CAKI-1) is reported as > 100 µM (inactive) and the GI50 (A498) is reported as > 100 µM (inactive). For the same molecule, the GI50 (OVCAR-4) was 96.6 µM (inactive), the GI50 (KM12) was 7.1 µM (inactive) and the GI50 (UACC-62) was 1.54 µM (inactive). The GI50 (SNB-19) was 75.2 µM (inactive), the GI50 (HCC 2998) was 26.4 µM (inactive) and the GI50 (Malme-3M) was > 100 µM (inactive). For the same molecule, the GI50 (NCI/ADR-RES) was 42.5 µM (inactive), the GI50 (A549) was 18.9 µM (inactive) and the GI50 (SK-MEL-5) was 2.81 µM (inactive). For the same molecule, the GI50 (MOLT-4) was 0.596 µM (active), the GI50 (SK-MEL-28) was 37.5 µM (inactive) and the GI50 (UACC-257) was 3.31 µM (inactive). For the same molecule, the GI50 (NCI-H522) was 50 µM (inactive), the GI50 (SF-295) was 2.29 µM (inactive) and the GI50 (LOX IMVI) was 0.813 µM (active).
CC(/C=C/C=C/C=C/C=C/C=C/C(=O)C1=C(O)C(CCC(=O)O)N(C)C1=O)=C\C(C)C(OC1CC(O)C(O)C(C)O1)C(C)C (stereo not given) was tested, and the GI50 (OVCAR-8) was 3.74 µM (inactive), the GI50 (CAKI-1) was 3.5 µM (inactive) and the GI50 (A498) was 2.84 µM (inactive). For the same molecule, the GI50 (OVCAR-4) was 5.75 µM (inactive), the GI50 (KM12) was 1.88 µM (inactive) and the GI50 (SNB-19) was 2.81 µM (inactive). For the same molecule, the GI50 (HCC 2998) was 2.15 µM (inactive), the GI50 (Malme-3M) was 2.23 µM (inactive) and the GI50 (NCI/ADR-RES) was 13 µM (inactive). The GI50 (A549) was 3.19 µM (inactive), the GI50 (SK-MEL-5) was 1.91 µM (inactive) and the GI50 (MOLT-4) was 2.82 µM (inactive). The GI50 (SK-MEL-28) was 2.68 µM (inactive), the GI50 (UACC-257) was 2.15 µM (inactive) and the GI50 (NCI-H522) was 2.91 µM (inactive). The GI50 (SF-295) was 3.8 µM (inactive) and the GI50 (LOX IMVI) was 3.44 µM (inactive).
With O=C1C=C(C2=CC(=O)C(=O)c3ccccc32)c2ccccc2C1=O the GI50 (OVCAR-8) was 20.2 µM (inactive), the GI50 (CAKI-1) was 22 µM (inactive) and the GI50 (A498) was 46.6 µM (inactive). For the same molecule, the GI50 (OVCAR-4) was 47.6 µM (inactive), the GI50 (KM12) was 18.6 µM (inactive) and the GI50 (SK-OV-3) was 44.1 µM (inactive). For the same molecule, the GI50 (UACC-62) was 5.37 µM (inactive), the GI50 (SNB-19) was 29.7 µM (inactive) and the GI50 (Malme-3M) was 3.44 µM (inactive). The GI50 (NCI/ADR-RES) was 23.2 µM (inactive), the GI50 (A549) was 35.6 µM (inactive) and the GI50 (SK-MEL-5) was 2.85 µM (inactive). For the same molecule, the GI50 (MOLT-4) was 2.44 µM (inactive), the GI50 (SK-MEL-28) was 4.26 µM (inactive) and the GI50 (UACC-257) was 6.24 µM (inactive). For the same molecule, the GI50 (NCI-H522) was 2.76 µM (inactive), the GI50 (SF-295) was 21.2 µM (inactive) and the GI50 (LOX IMVI) was 3.87 µM (inactive).
In the case of Cc1ccc2c(ccc3[nH]cc(CNc4ccc(NS(C)(=O)=O)cc4)c32)n1, the GI50 (OVCAR-8) is reported as 25.7 µM (inactive), the GI50 (CAKI-1) is reported as 14 µM (inactive) and the GI50 (A498) is reported as 15.6 µM (inactive). The GI50 (OVCAR-4) was 21.7 µM (inactive), the GI50 (KM12) was 18.3 µM (inactive) and the GI50 (SK-OV-3) was 27.7 µM (inactive). The GI50 (UACC-62) was 16.1 µM (inactive), the GI50 (SNB-19) was 36.4 µM (inactive) and the GI50 (Malme-3M) was 18.5 µM (inactive). The GI50 (NCI/ADR-RES) was 81.7 µM (inactive), the GI50 (A549) was 23.1 µM (inactive) and the GI50 (SK-MEL-5) was 18.6 µM (inactive). For the same molecule, the GI50 (MOLT-4) was 18.6 µM (inactive), the GI50 (SK-MEL-28) was 23.4 µM (inactive) and the GI50 (UACC-257) was 19.1 µM (inactive). For the same molecule, the GI50 (NCI-H522) was 14.9 µM (inactive), the GI50 (SF-295) was 21.8 µM (inactive) and the GI50 (LOX IMVI) was 20.6 µM (inactive).
For CCOC(=O)C1=CNC(C(=O)OCC)C1c1cccn1-c1ccccc1 (stereo not given), the GI50 (OVCAR-8) was 28.8 µM (inactive), the GI50 (CAKI-1) was 32.6 µM (inactive) and the GI50 (A498) was 37 µM (inactive). The GI50 (OVCAR-4) was 46.6 µM (inactive), the GI50 (KM12) was 30.8 µM (inactive) and the GI50 (UACC-62) was 24.4 µM (inactive). The GI50 (HCC 2998) was 28.7 µM (inactive), the GI50 (NCI/ADR-RES) was 22.8 µM (inactive) and the GI50 (A549) was 33.9 µM (inactive). The GI50 (SK-MEL-5) was 17.5 µM (inactive), the GI50 (MOLT-4) was 19.8 µM (inactive) and the GI50 (SK-MEL-28) was 28.1 µM (inactive). For the same molecule, the GI50 (UACC-257) was 35.7 µM (inactive), the GI50 (NCI-H522) was 21.3 µM (inactive) and the GI50 (SF-295) was 24.5 µM (inactive). For the same molecule, the GI50 (LOX IMVI) was 16.6 µM (inactive).
C[C@@H](C[C@@H](O)[C@H](O)C(C)(C)O)[C@H]1CC=C2[C@]3(C)[C@H](O)C[C@H]4C(C)(C)[C@H](O)CC[C@]4(C)[C@H]3CC[C@@]21C was tested, and the GI50 (OVCAR-8) was 16.1 µM (inactive), the GI50 (CAKI-1) was 16.4 µM (inactive) and the GI50 (A498) was 15.2 µM (inactive). For the same molecule, the GI50 (OVCAR-4) was 14.4 µM (inactive), the GI50 (KM12) was 15.7 µM (inactive) and the GI50 (SNB-19) was 16 µM (inactive). For the same molecule, the GI50 (HCC 2998) was 17.3 µM (inactive), the GI50 (Malme-3M) was 14.3 µM (inactive) and the GI50 (NCI/ADR-RES) was 13.8 µM (inactive). The GI50 (A549) was 12.7 µM (inactive), the GI50 (SK-MEL-5) was 14.2 µM (inactive) and the GI50 (MOLT-4) was 11.1 µM (inactive). For the same molecule, the GI50 (SK-MEL-28) was 14.4 µM (inactive), the GI50 (UACC-257) was 16.1 µM (inactive) and the GI50 (NCI-H522) was 14 µM (inactive). The GI50 (SF-295) was 15 µM (inactive) and the GI50 (LOX IMVI) was 15.8 µM (inactive).
CCSc1cc(C(=O)OC)c2n(c1=O)CCCC2 was tested, and the GI50 (OVCAR-8) was > 100 µM (inactive), the GI50 (CAKI-1) was > 100 µM (inactive) and the GI50 (A498) was > 100 µM (inactive). For the same molecule, the GI50 (OVCAR-4) was > 100 µM (inactive), the GI50 (KM12) was > 100 µM (inactive) and the GI50 (SK-OV-3) was > 100 µM (inactive). The GI50 (UACC-62) was > 100 µM (inactive), the GI50 (SNB-19) was > 100 µM (inactive) and the GI50 (Malme-3M) was > 100 µM (inactive). The GI50 (NCI/ADR-RES) was > 100 µM (inactive), the GI50 (A549) was > 100 µM (inactive) and the GI50 (SK-MEL-5) was > 100 µM (inactive). For the same molecule, the GI50 (MOLT-4) was > 100 µM (inactive), the GI50 (SK-MEL-28) was > 100 µM (inactive) and the GI50 (UACC-257) was > 100 µM (inactive). The GI50 (NCI-H522) was > 100 µM (inactive), the GI50 (SF-295) was > 100 µM (inactive) and the GI50 (LOX IMVI) was > 100 µM (inactive).
